Assay: Hair-restructuring effect by HP-DSC: melting point of permed hair strands after post-treatment with the active
Settings: melting point of the hair (DSC, Perkin Elmer DSC-7); permed strands dipped 10 min at 23°C in 1% aqueous solution of the active at pH 3, rinsed 1 min, dried, rested 16 h; comparison without post-treatment 149,8
From the text: Strähnen der Fa. Alkinco (0,5g, Code 6634) wurden einer herkömmlichen Dauerwellbehandlungen mit dem Handelsprodukt Poly Lock-Normale Dauerwelle unterzogen. Im Rahmen dieser Dauerwellbehandlung wurden die Fasern in einem ersten Schritt für 40 Minuten bei Raumtemperatur der Reduktionslösung (enthaltend 7,9 Gew.-% Thioglykolsäure) ausgesetzt, mit reinem Wasser gespült und anschließend bei Raumtemperatur für 10 Minuten fixiert (Oxidationslösung, enthaltend 2,6 Gew.-% Wasserstoffperoxid). Nach der oxidativen Behandlung wurden die Fasern gespült und getrocknet.
Die Strähnen wurden jeweils bei einer Temperatur von 23°C 10 Minuten in eine 1% ige wäßrige Lösung der jeweiligen Wirkstoffe bei einem pH - Wert von 3, welcher mit Natronlauge oder Salzsäure eingestellt wurde, getaucht. Anschließend wurde jede Haarsträhne 1 Minute mit klarem Wasser gespült, getrocknet und 16 h ruhen gelassen.
Mittels einer DSC-Analyse (Perkin Elmer DSC-7) wurden die folgenden in Tabelle 1 dargestellten Schmelzpunkte ermittelt. Eine genaue Beschreibung der Methode findet sich beispielsweise in der DE 196 173 95 A1

Row | Substance | Schmelzpunkt in °C
1 | Poly-D/L-Alanin | 151,8 °C
2 | Poly-L-Serin | 151,9 °C

Source: patent EP1339379B1, “NOVEL USE OF PROTEIN HYDROLYSATES” (Henkel Kommanditgesellschaft auf Aktien, priority 2000, dated 2002)
